The values below come from patent US20240016775A1, “ANTI-CORONAVIRUS APPLICATION OF POLY ADP RIBOSE POLYMERASE INHIBITOR” (FUKANG (SHANGHAI) HEALTH TECHNOLOGY CO., LTD, priority 2020, published 2024).

Where a name gives a salt, the structure may show the parent alone.

Common to all, as to format: cell-based
A short description of data set [1]: Cytotoxicity test on Vero-E6 cells (CCK-8). The following applies: African green monkey, 48 h, read-out: CC50 (50% cytotoxic concentration). The procedure:
(§1) 2.1 Experimental Groups: • 1) Mefuparib hydrochloride (CVL218) group • 2) DMSO control group • 3) Olaparib group • 4) Cell control group: containing only cells, without adding drugs • 5) Blank control group (only medium without cells)
(§2) Mefuparib hydrochloride was obtained from Pukang (Shanghai) Health Technology Co., Ltd., with a purity of >99.0%. It was dissolved in DMSO and then diluted in gradients according to Table 4 below (the maintenance solution was DMEM medium). Serial dilutions were performed for DMSO according to the same dilution gradients.
(§3) Vero-E6 cells were seeded into 96-well culture plates at 1×10^4 cells/well, and cultured in DMEM containing 10% fetal bovine serum for 16 hours to become 80% pellets, then the cell culture medium was aspirated and discarded from each well, the cells were washed once with sterile PBS, and different drugs (200 μl/well) diluted in the cell maintenance solution were added to each well according to the experimental groups, with 3 duplicate wells set up for each group, and then the wells were placed in a 37° C., 5% CO2 incubator for 48 h.
(§4) For the DMSO control group, DMSO diluted with the cell maintenance solution to the corresponding concentration was added, and for the cell control group, 200 μl of the cell maintenance solution was added. For the blank control group, only cell maintenance solution without cells was added.
(§5) 2.3.2 Detection of toxicity of mefuparib hydrochloride and Olaparib on Vero-E6 The cell state was observed and recorded under an inverted microscope, and the toxicity of the drug to Vero-E6 cells was detected according to the operation instructions of the CCK-8 kit: 20 μl of CCK-8 solution was added to all experimental wells and control wells, and the cell culture plate was placed in a 37° C., 5% CO2 incubator for 1 hour, and then its absorbance value at the wavelength of 450 nm was measured using a multifunctional microplate reader.

Data set [2] relates to SARS-CoV-2. The data set can be described thus: microbe, parasite or virus in culture. The settings on record: Severe acute respiratory syndrome coronavirus 2, Vero C1008, 48 h, Vero-E6, MOI 0.05, 48 h; for inhibition at 3 µM: read-out: Inhibiting rate, %, 3 μM.
Data set [3] relates to Vero-E6 cells. Description: Cytotoxicity test on Vero-E6 cells (CCK-8). The following applies: 30 μM. The procedure:
as §1, §2, §3, §4, §5

For `O=C(c1cc(Cc2n[nH]c(=O)c3ccccc23)ccc1F)N1CCN(C(=O)C2CC2)CC1` [Olaparib, olaparib, reference compound], the CC50 at 48 h in data set [1] fell in the range of 100 to 300 µM. Also, in data set [2] (3.2 μM, different batches, read-out: Inhibiting rate, %), the inhibition at 3.2 µM is about 12%.

For `CCOC(=O)C1=C[C@@H](OC(CC)CC)[C@H](NC(C)=O)[C@@H](N)C1` [Oseltamivir], in data set [2], the inhibition at 3 µM is -13.5%.

Take `CC(=O)N[C@H]1[C@H]([C@H](O)[C@H](O)CO)OC(C(=O)O)=C[C@@H]1N=C(N)N` [Zanamivir]: the inhibition at 3 µM in data set [2] was -10.7%.

Consider `CNCc1ccc(-c2cc3cc(F)cc(C(N)=O)c3o2)cc1` [mefuparib hydrochloride], for which the CC50 at 48 h in data set [1] was about 92 µM. Also, the “Inhibitory effect on the cells (toxicity)” value in data set [3] was “no inhibitory effect on the cells”.
